O=c1c2ccccc2sc2ccc(Cl)cc12
Settings | solubility (mole fraction)
in 1,2-dichloroethane, 291.55 K | 0.0108
in 1,2-dichloroethane, 293.05 K | 0.0114
in 1,2-dichloroethane, 294.95 K | 0.0121
in 1,2-dichloroethane, 297.05 K | 0.0131
in 1,2-dichloroethane, 299.15 K | 0.0139
in 1,2-dichloroethane, 301.25 K | 0.015
in 1,2-dichloroethane, 306.25 K | 0.0173
in 1,2-dichloroethane, 311.35 K | 0.0195
in 1,2-dichloroethane, 316.35 K | 0.022
in 1,2-dichloroethane, 321.45 K | 0.0247
in 1,2-dichloroethane, 326.75 K | 0.0275
in 1,2-dichloroethane, 331.55 K | 0.0307
in 1,4-dioxane, 290.35 K | 0.00155
in 1,4-dioxane, 295.45 K | 0.00263
in 1,4-dioxane, 300.45 K | 0.00398
in 1,4-dioxane, 305.55 K | 0.00552
in 1,4-dioxane, 310.45 K | 0.00703
in 1,4-dioxane, 315.55 K | 0.00882
in 1,4-dioxane, 320.45 K | 0.0105
in 1,4-dioxane, 326.35 K | 0.0128
in 1,4-dioxane, 331.15 K | 0.0145
in 2-butanone, 292.15 K | 0.00488
in 2-butanone, 297.05 K | 0.00587
in 2-butanone, 301.95 K | 0.00695
in 2-butanone, 306.65 K | 0.00834
in 2-butanone, 311.25 K | 0.0101
in 2-butanone, 316.15 K | 0.0119
in 2-butanone, 321.25 K | 0.0145
in 2-butanone, 326.55 K | 0.017
in 2-butanone, 331.55 K | 0.0208
in 2-butanone, 335.95 K | 0.024
in THF, 291.85 K | 0.00658
in THF, 296.95 K | 0.00767
in THF, 302.15 K | 0.00869
in THF, 307.25 K | 0.00967
in THF, 312.25 K | 0.0106
in THF, 317.25 K | 0.0113
in THF, 322.25 K | 0.0118
in THF, 327.55 K | 0.0124
in THF, 332.85 K | 0.0127
in acetone, 289.15 K | 0.00244
in acetone, 294.75 K | 0.00278
in acetone, 299.15 K | 0.00306
in acetone, 303.65 K | 0.00335
in acetone, 309.25 K | 0.00381
in acetone, 313.35 K | 0.00425
in acetone, 319.15 K | 0.00498
in acetone, 323.35 K | 0.00579
in acetone, 329.25 K | 0.00692
in acetonitrile, 289.15 K | 0.000623
in acetonitrile, 294.35 K | 0.000768
in acetonitrile, 299.45 K | 0.00093
in acetonitrile, 305.15 K | 0.00114
in acetonitrile, 309.85 K | 0.00133
in acetonitrile, 315.15 K | 0.0016
in acetonitrile, 319.75 K | 0.0019
in acetonitrile, 324.35 K | 0.00226
in acetonitrile, 329.15 K | 0.00265
in ethanol, 287.55 K | 0.000567
in ethanol, 293.15 K | 0.000679
in ethanol, 298.15 K | 0.000795
in ethanol, 303.15 K | 0.000943
in ethanol, 308.35 K | 0.00122
in ethanol, 313.35 K | 0.0015
in ethanol, 318.15 K | 0.0019
in ethanol, 322.15 K | 0.00229
in ethanol, 327.65 K | 0.00296
in ethyl acetate, 289.15 K | 0.00367
in ethyl acetate, 293.15 K | 0.00419
in ethyl acetate, 298.25 K | 0.00502
in ethyl acetate, 303.45 K | 0.00588
in ethyl acetate, 308.25 K | 0.00683
in ethyl acetate, 313.35 K | 0.00786
in ethyl acetate, 318.45 K | 0.00935
in ethyl acetate, 324.65 K | 0.0112
in ethyl acetate, 330.15 K | 0.0129
in isopropanol, 290.25 K | 0.000547
in isopropanol, 295.15 K | 0.000647
in isopropanol, 300.55 K | 0.000757
in isopropanol, 304.75 K | 0.000906
in isopropanol, 310.25 K | 0.0011
in isopropanol, 314.95 K | 0.00137
in isopropanol, 320.35 K | 0.00179
in isopropanol, 325.65 K | 0.00225
in isopropanol, 331.15 K | 0.00292
in methanol, 292.15 K | 0.000192
in methanol, 297.05 K | 0.000236
in methanol, 301.95 K | 0.000279
in methanol, 306.65 K | 0.00036
in methanol, 311.25 K | 0.000414
in methanol, 316.15 K | 0.000535
in methanol, 321.25 K | 0.000665
in methanol, 326.55 K | 0.000878
in methanol, 331.55 K | 0.00112
in methanol, 335.95 K | 0.00134
in n-propanol, 290.65 K | 0.000647
in n-propanol, 295.25 K | 0.000769
in n-propanol, 300.15 K | 0.000896
in n-propanol, 305.55 K | 0.00106
in n-propanol, 310.65 K | 0.00129
in n-propanol, 315.55 K | 0.00156
in n-propanol, 320.65 K | 0.0019
in n-propanol, 325.55 K | 0.0023
in n-propanol, 331.15 K | 0.00277
in toluene, 289.65 K | 0.00915
in toluene, 295.05 K | 0.0112
in toluene, 300.15 K | 0.0138
in toluene, 305.25 K | 0.0164
in toluene, 310.25 K | 0.0193
in toluene, 315.35 K | 0.023
in toluene, 320.35 K | 0.0276
in toluene, 325.25 K | 0.0321
in toluene, 330.25 K | 0.039

Reference: BigSolDB 2.1
